Laboratory results published in DBAASP.
≈ marks a conversion by molar mass, not a printed value. Where “and” joins values, the source holds several entries; their conditions need not be identical. Identical values can stand only once.

How the values were obtained:
Assay in all cases: ≥ marks a high value that may be exact or a test limit, other limits are often not marked, values filed in µg/mL are converted to µM
[1] = test system: Candida albicans ATCC 90028
[2] = test system: Escherichia coli ATCC 25922
[3] = test system: Staphylococcus aureus ATCC 29213
[4] = test system: Pseudomonas aeruginosa ATCC 27853
[5] = test system: Staphylococcus epidermidis ATCC 12228
Pseudomonas aeruginosa = test system: Pseudomonas aeruginosa
Staphylococcus aureus = test system: Staphylococcus aureus
Escherichia coli = test system: Escherichia coli

| Structure (SMILES) | MIC [2] [µM] | MIC (Pseudomonas aeruginosa) [µM] | MIC (Staphylococcus aureus) [µM] | MIC (Escherichia coli) | also measured |
| --- | --- | --- | --- | --- | --- |
| CC[C@H](C)[C@H](NC(=O)[C@H](CCCN=C(N)N)NC(=O)[C@H](CCC(N)=O)NC(=O)[C@@H](NC(=O)[C@@H](NC(=O)[C@H](CCCN=C(N)N)NC(=O)[C@H](C)N)[C@@H](C)CC)C(C)C)C(=O)N[C@@H](CCCCN)C(=O)N[C@@H](CC(=O)O)C(=O)N[C@@H](Cc1ccccc1)C(=O)N[C@@H](CC(C)C)C(=O)N[C@@H](CCCN=C(N)N)C(=O)O [ARIVQRIKDFLR] | 40 (≈ 60.6 µg/mL) | – | – | – | MIC [1]: ≥ 40 µM; MIC [3]: 40 µM (≈ 60.6 µg/mL); MIC [4]: 40 µM (≈ 60.6 µg/mL) |
| CC(C)C[C@H](NC(=O)[C@H](Cc1ccc(O)cc1)NC(=O)[C@H](Cc1ccc(O)cc1)NC(=O)CNC(=O)[C@H](Cc1c[nH]c2ccccc12)NC(=O)[C@H](CO)NC(=O)[C@H](CO)NC(=O)[C@H](Cc1c[nH]c2ccccc12)NC(=O)[C@H](CC(C)C)NC(=O)[C@H](CCCCN)NC(=O)[C@@H](NC(=O)[C@@H](NC(=O)[C@H](CC(C)C)NC(=O)[C@@H](N)CC(=O)O)[C@@H](C)O)[C@@H](C)O)C(=O)NCC(=O)O [DLTTKLWSSWGYYLG] | – | – | – | – | MIC [5]: 25 µM (≈ 44.8 µg/mL) |
| CC[C@H](C)[C@H](N)C(=O)N[C@@H](Cc1c[nH]c2ccccc12)C(=O)N[C@@H](CCCN=C(N)N)C(=O)N[C@H](C(=O)N[C@@H](Cc1ccccc1)C(=O)N[C@@H](CCCN=C(N)N)C(=O)N[C@@H](CCCN=C(N)N)C(=O)N[C@H](C(=O)N[C@@H](Cc1ccccc1)C(=O)N[C@@H](CCCN=C(N)N)C(=O)N[C@H](C(=O)N[C@@H](Cc1ccccc1)C(=O)N[C@H](C(=O)N[C@@H](CCCN=C(N)N)C(=O)N[C@@H](Cc1ccccc1)C(N)=O)[C@@H](C)CC)[C@@H](C)CC)[C@@H](C)CC)[C@@H](C)CC [IWRIFRRIFRIFIRF] | 16 (≈ 34.2 µg/mL) | – | – | – | MIC [5]: 4 µM (≈ 8.55 µg/mL); MIC [3]: 8 µM (≈ 17.1 µg/mL); MIC [4]: 16 µM (≈ 34.2 µg/mL) |
| CC(C)C[C@H](NC(=O)[C@H](CC(C)C)NC(=O)[C@H](C)NC(=O)[C@H](CCCCN)NC(=O)[C@H](C)NC(=O)[C@H](C)NC(=O)[C@H](C)NC(=O)[C@H](CC(C)C)NC(=O)[C@H](Cc1c[nH]c2ccccc12)NC(=O)[C@H](CCCCN)NC(=O)[C@H](C)NC(=O)[C@H](CC(C)C)NC(=O)[C@H](CC(C)C)NC(=O)[C@H](CCCCN)NC(=O)[C@H](CCCCN)NC(=O)[C@H](CC(C)C)NC(=O)[C@H](C)NC(=O)[C@@H](N)CCCCN)C(N)=O [KALKKLLAKWLAAAKALL] | – | 12.2 (≈ 23.8 µg/mL) | 1.5 (≈ 2.92 µg/mL) | 6.1 µM (≈ 11.9 µg/mL) | – |
| CC[C@H](C)[C@H](NC(=O)[C@H](C)NC(=O)[C@H](CCC(N)=O)NC(=O)[C@@H](NC(=O)[C@@H](NC(=O)[C@H](CCCN=C(N)N)NC(=O)[C@@H](N)CCCCN)[C@@H](C)CC)C(C)C)C(=O)N[C@@H](CCCCN)C(=O)N[C@@H](CC(=O)O)C(=O)N[C@@H](Cc1ccccc1)C(=O)N[C@@H](CC(C)C)C(=O)N[C@@H](CCCN=C(N)N)C(=O)O [KRIVQAIKDFLR] | 40 (≈ 59.5 µg/mL) | – | – | – | MIC [1]: ≥ 40 µM; MIC [3]: 40 µM (≈ 59.5 µg/mL); MIC [4]: 40 µM (≈ 59.5 µg/mL) |
| CC[C@H](C)[C@H](NC(=O)[C@H](Cc1c[nH]c2ccccc12)NC(=O)[C@H](CCCCN)NC(=O)[C@@H](NC(=O)[C@H](CC(C)C)NC(=O)[C@H](CCCCN)NC(=O)CNC(=O)[C@@H](NC(=O)[C@@H](NC(=O)[C@H](CO)NC(=O)[C@@H](NC(=O)[C@@H](NC(=O)[C@H](CCCCN)NC(=O)[C@H](CCC(N)=O)NC(=O)[C@H](C)NC(=O)[C@@H](N)CCSC)[C@@H](C)CC)[C@@H](C)CC)[C@@H](C)O)[C@@H](C)CC)C(C)C)C(=O)N[C@H](C(=O)N[C@@H](CCCCN)C(=O)N[C@H](C(=O)N[C@H](C(=O)N[C@@H](CC(N)=O)C(=O)N[C@@H](CCCCN)C(=O)N[C@@H](Cc1ccccc1)C(=O)N[C@H](C(=O)N[C@@H](CCCCN)C(=O)N[C@@H](CCCCN)C(=O)O)[C@@H](C)O)C(C)C)[C@@H](C)O)[C@@H](C)CC [MAQKIISTIGKLVKWIIKTVNKFTKK] | – | – | 20 (≈ 60.4 µg/mL) | 3.8 µM (≈ 11.5 µg/mL) | – |

Further lines, with some results ahead:

| MIC [2] [µM] | MIC (Pseudomonas aeruginosa) [µM] | MIC (Staphylococcus aureus) [µM] | MIC (Escherichia coli) | Structure (SMILES) | also measured |
| --- | --- | --- | --- | --- | --- |
| – | 86.6 (≈ 152 µg/mL) | 11.8 (≈ 20.7 µg/mL) | 7.5 µM and 6.25 µM and 3.12 µM | CC[C@H](C)[C@H](N)C(=O)N[C@@H](CC(N)=O)C(=O)N[C@@H](Cc1c[nH]c2ccccc12)C(=O)N[C@@H](CCCCN)C(=O)N[C@@H](CCCCN)C(=O)N[C@H](C(=O)N[C@@H](Cc1ccccc1)C(=O)N[C@@H](CCC(=O)O)C(=O)N[C@@H](CCCCN)C(=O)N[C@H](C(=O)N[C@@H](CCCCN)C(=O)N[C@@H](CC(N)=O)C(=O)N[C@@H](CC(C)C)C(=O)N[C@H](C(N)=O)C(C)C)C(C)C)[C@@H](C)CC [INWKKIFEKVKNLV] | – |
| – | – | 4.17 (≈ 10 µg/mL) | 7.23 µM (≈ 17.3 µg/mL) | C[C@H](NC(=O)[C@H](C)NC(=O)[C@H](CCCCN)NC(=O)[C@H](C)NC(=O)[C@H](Cc1ccccc1)NC(=O)[C@H](Cc1c[nH]c2ccccc12)NC(=O)[C@H](CCCCN)NC(=O)[C@H](Cc1ccccc1)NC(=O)[C@H](CCCCN)NC(=O)[C@H](CCCCN)NC(=O)[C@H](C)NC(=O)[C@H](Cc1ccccc1)NC(=O)[C@@H](N)CCCCN)C(=O)N[C@@H](Cc1ccccc1)C(=O)N[C@@H](CCCCN)C(=O)N[C@@H](Cc1ccccc1)C(=O)N[C@@H](Cc1ccccc1)C(=O)N[C@@H](CCCCN)C(=O)N[C@@H](CCCCN)C(N)=O [KFAKKFKWFAKAAFKFFKK] | – |
| – | 45 (≈ 83.9 µg/mL) | 45 (≈ 83.9 µg/mL) | 7.78 µM (≈ 14.5 µg/mL) | CC(C)C[C@H](NC(=O)[C@H](C)NC(=O)[C@H](CC(C)C)NC(=O)[C@@H](N)CCCCN)C(=O)N[C@@H](CCCCN)C(=O)N[C@@H](C)C(=O)N[C@@H](C)C(=O)N[C@@H](CC(C)C)C(=O)N[C@@H](CCCCN)C(=O)N[C@@H](C)C(=O)N[C@@H](Cc1c[nH]c2ccccc12)C(=O)N[C@@H](CCCCN)C(=O)N[C@@H](C)C(=O)N[C@@H](C)C(=O)N[C@@H](C)C(=O)N[C@@H](CCCCN)C(=O)N[C@@H](CC(C)C)C(=O)N[C@@H](C)C(N)=O [KLALKAALKAWKAAAKLA] | – |
| > 23.8 | – | – | > 23.8 µM | CC[C@H](C)[C@H](NC(=O)[C@H](CCCN=C(N)N)NC(=O)[C@@H](NC(=O)[C@H](CCCN=C(N)N)NC(=O)[C@H](CCC(N)=O)NC(=O)[C@H](Cc1cnc[nH]1)NC(=O)[C@@H](NC(=O)[C@H](CCCN=C(N)N)NC(=O)[C@H](CCCN=C(N)N)NC(=O)[C@H](CCCCN)NC(=O)[C@H](CCCN=C(N)N)NC(=O)[C@H](CCCCN)NC(=O)[C@H](CO)NC(=O)[C@H](CCCN=C(N)N)NC(=O)[C@@H](N)CCCCN)[C@@H](C)CC)C(C)C)C(=O)N[C@@H](CO)C(=O)O [KRSKRKRRIHQRVRIS] | – |
| – | 4.98 (≈ 12.5 µg/mL) | – | – | CC[C@H](C)[C@H](NC(=O)[C@H](Cc1ccccc1)NC(=O)[C@H](CO)NC(=O)[C@H](CCCCN)NC(=O)[C@H](Cc1c[nH]c2ccccc12)NC(=O)[C@@H](N)CCCCN)C(=O)N[C@@H](CCCCN)C(=O)N[C@@H](CCCCN)C(=O)N[C@@H](CC(C)C)C(=O)N[C@H](C(=O)N[C@@H](CO)C(=O)N[C@@H](CCCCN)C(=O)N[C@@H](Cc1ccccc1)C(=O)N[C@@H](CC(C)C)C(=O)N[C@@H](Cc1cnc[nH]1)C(=O)N[C@@H](CO)C(=O)N[C@@H](CCCCN)C(=O)N[C@@H](CCCCN)C(=O)N[C@@H](CCCCN)C(=O)N[C@@H](Cc1ccccc1)C(N)=O)[C@@H](C)O [KWKSFIKKLTSKFLHSKKKF] | – |
| > 25.9 | – | – | > 25.9 µM | CC[C@H](C)[C@H](NC(=O)[C@H](CCCN=C(N)N)NC(=O)[C@H](CCC(=O)O)NC(=O)[C@H](CCCCN)NC(=O)[C@H](CCC(=O)O)NC(=O)[C@H](CCCCN)NC(=O)[C@H](CO)NC(=O)[C@H](CC(C)C)NC(=O)[C@@H](N)[C@@H](C)O)C(=O)N[C@H](C(=O)N[C@@H](CCC(N)=O)C(=O)N[C@@H](CCCN=C(N)N)C(=O)N[C@H](C(=O)N[C@@H](CCCN=C(N)N)C(=O)N[C@H](C(=O)N[C@@H](CO)C(=O)O)[C@@H](C)O)C(C)C)C(C)C [TLSKEKERIVQRVRTS] | – |
